{"source": "patent US20050182039A1", "about": "“Use of Loteprednol etabonate for the treatment of dry eye” (Bausch & Lomb Incorporated, priority 2004, published 2005)", "system": "patients with KCS with inflammation", "experiment": "four-week topical use of a Loteprednol etabonate ophthalmic formulation in patients with KCS with inflammation", "assay_type": "in vivo, human", "description": "U.S. Patent Application. Publication No. 20030008853 discloses 22,29-epoxy-3,4,6,7,29-pentahydroxy-,(3α,4β,5α,6α,7-β,14β,22S)-stigmastan-15-one as useful for treating dry eye disorders and other disorders requiring the wetting of the eye. This publication further notes that corticosteroids, such as prednisolone, dexamethasone, fluoromethalone, hydrocortisone, loteprednol, triamcinolone, etc., cannot be used for prolonged therapy in dry eye patients without causing side effects. This publication further notes that steroid-related complications including increased intraocular pressure and cataract formation have been observed in dry eye patients treated with corticosteroids after several months of therapy."}
{"compound": "CCOC(=O)O[C@]1(C(=O)OCCl)CC[C@H]2[C@@H]3CCC4=CC(=O)C=C[C@]4(C)[C@H]3[C@@H](O)C[C@@]21C", "note": "[Loteprednol etabonate, (11β,17α),-17-[(Ethoxycarbonyl)oxy]-11-hydroxy-3-oxoandrosta-1,4-diene-17-carboxylic acid chloromethyl ester]", "values": [{"measurement": "treatment effect in subsets of patients with a moderate to severe inflammatory component (more severe KCS)", "setting": "patient subsets with moderate to severe inflammatory component", "value": "differential treatment effect, which was in some cases significant"}, {"measurement": "efficacy in the management of patients with KCS with inflammation", "setting": "used for four weeks", "value": "efficacious"}, {"measurement": "tolerability in the management of patients with KCS with inflammation", "setting": "used for four weeks", "value": "well tolerated"}]}
